target: SHP2 (Homo sapiens (Human), UniProt Q06124); assay: SHP2 allosteric inhibition experiment (DiFMUP fluorescence); type: biochemical; settings: 0.5 nM SHP2 activated with 0.5 μM peptide IRS1_pY1172(dPEG8)pY1222; substrate DiFMUP; 25° C.; read-out: IC50 values of compounds inhibiting SHP2
Source text: SHP2 allosteric inhibition experiment
SHP2 is allosterically activated through the activation of a bis-tyrosyl-phosphorylated peptide and Src Homology 2 (SH2) domains. The activation steps followed result in the release of the auto-inhibition interface, which in turn activates the SHP2 protein tyrosine phosphatase (PTP) and can be used for substrate recognition and reaction catalysis. The SHP2 catalytic activity is monitored by a rapid fluorescent mode with the alternative substrate DiFMUP.
The phosphatase reaction was conducted in 384-well black polystyrene plates (Corning, Cat #3575) with flat bottom, low edge and non-binding surface at room temperature and 25 μl final volume of the following buffer condition: 60 mM HEPES, pH 7.2, 75 mM NaCl, 75 mM KCl, 1 mM EDTA, 0.05% P-20, 5 mM DTT.
The following experiments were conducted to monitor the SHP2 inhibition by the compounds (at concentrations of 0.0003-100 μM) in this invention:
Wherein, incubate 0.5 nM SHP2 with 0.5 μM peptide IRS1_pY1172 (dPEG8) pY1222 (sequence: H2N-LN (pY) IDLDLV (dPEG8) LST (pY) ASINFQK-amide) (SEQ ID NO: 1) (WO2016/203406A1). After incubation at 25° C. for 30-60 minutes, the alternative substrate DiFMUP (Invitrogen, cat #D6567) was added to the reaction and incubated at 25° C. for 30 minutes. The reaction was then carefully […] by adding 5 μL of a 160 μM bpV (Phen) solution (Enzo Life Sciences cat #ALX-270-204). The fluorescence signal was monitored using a microplate reader (VARIOSKAN LUX, Thermo) with excitation and emission wavelengths of 340 nm and 450 nm, respectively. The inhibitory dose-response curve is analyzed using a standardized IC50 regression curve based on control-based normalization.

IC50 | SMILES
2.71 nM | C[C@@H]1OCC2(CCN(c3cnc(Sc4cccc(Nc5cnccn5)c4Cl)cn3)CC2)[C@@H]1N [Example 2]
2.12 nM | C[C@@H]1OCC2(CCN(c3cnc(Sc4cccc(-c5ccn(C)n5)c4Cl)cn3)CC2)[C@@H]1N [Example 5]
5.1 nM | C[C@@H]1OCC2(CCN(c3cnc(Sc4cccc(NC(=O)c5cccc(F)c5Cl)c4Cl)cn3)CC2)[C@@H]1N [Example 10]
0.31 nM | C[C@@H]1OCC2(CCN(c3cnc(Sc4cccc(NC(=O)c5c(O)nc6n(c5=O)CCCC6)c4Cl)cn3)CC2)[C@@H]1N [Example 11]
3.59 nM | C[C@@H]1OCC2(CCN(c3cnc(Sc4cccc(NC(=O)c5ccn(C)n5)c4Cl)cn3)CC2)[C@@H]1N [Example 12]
5.88 nM | C[C@@H]1OCC2(CCN(c3cnc(Sc4cccc(NC(=O)c5cc(F)c(F)cc5Cl)c4Cl)cn3)CC2)[C@@H]1N [Example 13]
9.24 nM | C[C@@H]1OCC2(CCN(c3cnc(Sc4cccc(-c5nc6ccccc6o5)c4Cl)cn3)CC2)[C@@H]1N [Example 14]
1.95 nM | C[C@@H]1OCC2(CCN(c3cnc(Sc4cccc(-c5nc(C(N)=O)co5)c4Cl)cn3)CC2)[C@@H]1N [Example 19]
1.27 nM | C[C@@H]1OCC2(CCN(c3cnc(Sc4cccc(-c5nc(C(=O)O)co5)c4Cl)cn3)CC2)[C@@H]1N [Example 20]
1.72 nM | C[C@@H]1OCC2(CCN(c3cnc(Sc4cccc(NC(=O)c5ccccc5C(=O)O)c4Cl)cn3)CC2)[C@@H]1N [Example 22]
3.28 nM | C[C@@H]1OCC2(CCN(c3cnc(Sc4cccc(-c5cnn6cccnc56)c4Cl)cn3)CC2)[C@@H]1N [Example 23]
6.62 nM | C[C@@H]1OCC2(CCN(c3cnc(Sc4cccc(-c5cnc6ccnn6c5)c4Cl)cn3)CC2)[C@@H]1N [Example 29]
6.45 nM | C[C@@H]1OCC2(CCN(c3cnc(Sc4cccc(NC(=O)c5cc6n(n5)CCCC6)c4Cl)cn3)CC2)[C@@H]1N [Example 30]
2.82 nM | C[C@@H]1OCC2(CCN(c3cnc(Sc4cccc(-c5ccn6nccc6n5)c4Cl)cn3)CC2)[C@@H]1N [Example 32]
2.91 nM | C[C@@H]1OCC2(CCN(c3cnc(Sc4cccc(NC(=O)c5ncccn5)c4Cl)cn3)CC2)[C@@H]1N [Example 35]
6.42 nM | C[C@@H]1OCC2(CCN(c3cnc(Sc4cccc(NC(=O)c5c(O)nc6ccccn6c5=O)c4Cl)cn3)CC2)[C@@H]1N [Example 36]
9.01 nM | C[C@@H]1OCC2(CCN(c3cnc(Sc4cccc(NC(=O)c5ccccc5O)c4Cl)cn3)CC2)[C@@H]1N [Example 37]
9.41 nM | C[C@@H]1OCC2(CCN(c3cnc(Sc4cccc(NC(=O)c5cc(Cl)ccc5O)c4Cl)cn3)CC2)[C@@H]1N [Example 38]
8.3 nM | C[C@@H]1OCC2(CCN(c3cnc(Sc4cccc(NC(=O)c5cc6n(n5)CCC6)c4Cl)cn3)CC2)[C@@H]1N [Example 39]
7.5 nM | C[C@@H]1OCC2(CCN(c3cnc(Sc4cccc(Nc5ncccn5)c4Cl)cn3)CC2)[C@@H]1N [Example 43]
7.3 nM | C[C@@H]1OCC2(CCN(c3cnc(Sc4cccc(Nc5cnn(C)c5)c4Cl)cn3)CC2)[C@@H]1N [Example 44]

The next lines start with the compound.

SMILES | IC50
C[C@@H]1OCC2(CCN(c3cnc(Sc4cccc(N5CCCC5=O)c4Cl)cn3)CC2)[C@@H]1N [Example 1] | 7.69 nM
C[C@@H]1OCC2(CCN(c3cnc(Sc4cccc(-c5ncco5)c4Cl)cn3)CC2)[C@@H]1N [Example 3] | 1.26 nM
C[C@@H]1OCC2(CCN(c3cnc(Sc4cccc(N5CCCC5)c4Cl)cn3)CC2)[C@@H]1N [Example 4] | 7.88 nM
C[C@@H]1OCC2(CCN(c3cnc(Sc4cccc(-c5cnccn5)c4Cl)cn3)CC2)[C@@H]1N [Example 6] | 1.31 nM
C[C@@H]1OCC2(CCN(c3cnc(Sc4ccnc(-c5cnccn5)c4Cl)cn3)CC2)[C@@H]1N [Example 7] | 41.6 nM
C[C@@H]1OCC2(CCN(c3cnc(Sc4cccc(-c5cnccn5)c4Cl)c(N)n3)CC2)[C@@H]1N [Example 8] | 5.12 nM
C[C@@H]1OCC2(CCN(c3cnc(Sc4cccc(-c5ncccn5)c4Cl)cn3)CC2)[C@@H]1N [Example 9] | 6.61 nM
C[C@@H]1OCC2(CCN(c3cnc(Sc4cccc(-c5nc(C#N)co5)c4Cl)cn3)CC2)[C@@H]1N [Example 15] | 4.06 nM
Cc1ncsc1-c1cccc(Sc2cnc(N3CCC4(CC3)CO[C@@H](C)[C@H]4N)cn2)c1Cl [Example 16] | 4.9 nM
C[C@@H]1OCC2(CCN(c3cnc(Sc4cccc(-c5nc(C#N)cs5)c4Cl)cn3)CC2)[C@@H]1N [Example 17] | 4.35 nM
Cc1csc(-c2cccc(Sc3cnc(N4CCC5(CC4)CO[C@@H](C)[C@H]5N)cn3)c2Cl)n1 [Example 18] | 7.93 nM
C[C@@H]1OCC2(CCN(c3cnc(Sc4cccc(-c5ccc(C#N)o5)c4Cl)cn3)CC2)[C@@H]1N [Example 21] | 6.01 nM
Cc1coc(-c2cccc(Sc3cnc(N4CCC5(CC4)CO[C@@H](C)[C@H]5N)cn3)c2Cl)n1 [Example 24] | 2.41 nM
CCn1ccc(-c2cccc(Sc3cnc(N4CCC5(CC4)CO[C@@H](C)[C@H]5N)cn3)c2Cl)n1 [Example 25] | 1.74 nM
C[C@@H]1OCC2(CCN(c3cnc(Sc4cccc(-c5cn6ccnc6cn5)c4Cl)cn3)CC2)[C@@H]1N [Example 26] | 6.33 nM
C[C@@H]1OCC2(CCN(c3cnc(Sc4cccc(-c5nc(C#N)co5)c4Cl)cn3)CC2)[C@@H]1N [Example 27] | 3.51 nM
C[C@@H]1OCC2(CCN(c3cnc(Sc4cccc(-c5cccs5)c4Cl)cn3)CC2)[C@@H]1N [Example 28] | 9.4 nM
C[C@@H]1OCC2(CCN(c3cnc(Sc4cccc(N5C(=O)C6CC6C5=O)c4Cl)cn3)CC2)[C@@H]1N (stereo partly shown) [Example 31] | 7.91 nM
C[C@@H]1OCC2(CCN(c3cnc(Sc4cccc(-c5nccs5)c4Cl)cn3)CC2)[C@@H]1N [Example 34] | 5.34 nM
CCn1cc(-c2cccc(Sc3cnc(N4CCC5(CC4)CO[C@@H](C)[C@H]5N)cn3)c2Cl)cn1 [Example 40] | 4.4 nM
C[C@@H]1OCC2(CCN(c3cnc(Sc4cccc(-c5cnc6[nH]ccc6n5)c4Cl)cn3)CC2)[C@@H]1N [Example 41] | 6.2 nM
C[C@@H]1OCC2(CCN(c3cnc(Sc4cccc(-c5cnn(CCO)c5)c4Cl)cn3)CC2)[C@@H]1N [Example 42] | 3.4 nM
